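Interpolation was linear, between the two tested concentrations surrounding the appropriate level; five concentrations were tested over 48 hours in 96-well plates. TGI is the concentration that stops growth completely.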
What was measured:
Assay in all cases: DTP human tumour cell line panel, 48 h
BT-549 breast = test system: BT-549 breast
IGROV1 ovarian = test system: IGROV1 ovarian
OVCAR-3 ovarian = test system: OVCAR-3 ovarian
MCF7 breast = test system: MCF7 breast
TK-10 renal = test system: TK-10 renal
OVCAR-8 ovarian = test system: OVCAR-8 ovarian
SK-MEL-2 melanoma = test system: SK-MEL-2 melanoma
SF-295 CNS = test system: SF-295 CNS
NCI-H460 lung = test system: NCI-H460 lung
A549 NSCLC = test system: A549 NSCLC
SF-539 CNS = test system: SF-539 CNS
NCI-H23 lung = test system: NCI-H23 lung
SW-620 colon = test system: SW-620 colon
MDA-MB-231 breast = test system: MDA-MB-231 breast
SF-268 CNS = test system: SF-268 CNS
786-0 renal = test system: 786-0 renal
HOP-92 NSCLC = test system: HOP-92 NSCLC
SN12C renal = test system: SN12C renal
MDA-N = test system: MDA-N

SMILES | TGI (BT-549 breast) | TGI (IGROV1 ovarian) | TGI (OVCAR-3 ovarian) | TGI (MCF7 breast) | TGI (TK-10 renal) | TGI (OVCAR-8 ovarian) | TGI (SK-MEL-2 melanoma) | TGI (SF-295 CNS) | TGI (NCI-H460 lung) | TGI (A549 NSCLC) | TGI (SF-539 CNS) | TGI (NCI-H23 lung) | TGI (SW-620 colon) | TGI (MDA-MB-231 breast) | TGI (SF-268 CNS) | TGI (786-0 renal) | TGI (HOP-92 NSCLC) | TGI (SN12C renal) | TGI (MDA-N)
COc1ccc(-c2cc(-c3ccc(Nc4ccnc5cc(Cl)ccc45)cc3)nc(N)c2C#N)cc1 | > 100 µM | > 100 µM | > 100 µM | > 100 µM | > 100 µM | > 100 µM | > 100 µM | > 100 µM | > 100 µM | > 100 µM | > 100 µM | > 100 µM | > 100 µM | > 100 µM | > 100 µM | > 100 µM | > 100 µM | – | –
COc1ccc(C(=O)c2sc(Nc3ccccc3)nc2N)cc1 | > 100 µM | > 100 µM | > 100 µM | > 100 µM | > 100 µM | > 100 µM | > 100 µM | > 100 µM | > 100 µM | > 100 µM | > 100 µM | > 100 µM | > 100 µM | > 100 µM | > 100 µM | > 100 µM | > 100 µM | > 100 µM | –
C(=Nc1ccc(-c2cc(-c3ccccc3)nc3ccc4ccccc4c23)cc1)c1ccccc1 | – | > 100 µM | 68.9 µM | > 100 µM | 74.6 µM | > 100 µM | – | 48.8 µM | > 100 µM | 62.2 µM | 66.3 µM | > 100 µM | > 100 µM | > 100 µM | > 100 µM | > 100 µM | – | > 100 µM | > 100 µM
O=C1NCCCC12CCCNC2=O | – | > 100 µM | > 100 µM | – | – | > 100 µM | – | > 100 µM | > 100 µM | > 100 µM | > 100 µM | > 100 µM | > 100 µM | – | > 100 µM | > 100 µM | – | > 100 µM | –
Nc1ccc(C(=O)NN2C(=O)C(Cl)C2c2cc(Br)ccc2O)cc1 (centres undefined) | – | 94.3 µM | > 100 µM | – | > 100 µM | > 100 µM | – | > 100 µM | > 100 µM | > 100 µM | > 100 µM | > 100 µM | > 100 µM | – | > 100 µM | > 100 µM | > 100 µM | > 100 µM | –
COc1ccc(C(Cc2cc(OC)c(OC)c(OC)c2)C(=O)O)cc1 (centres undefined) | – | > 100 µM | 84.7 µM | – | > 100 µM | > 100 µM | > 100 µM | 84.8 µM | > 100 µM | > 100 µM | > 100 µM | > 100 µM | > 100 µM | – | > 100 µM | > 100 µM | – | > 100 µM | –
C#CCOCn1ccc(=O)[nH]c1=O | – | > 100 µM | – | > 100 µM | > 100 µM | > 100 µM | > 100 µM | > 100 µM | > 100 µM | > 100 µM | > 100 µM | > 100 µM | > 100 µM | > 100 µM | > 100 µM | > 100 µM | – | > 100 µM | > 100 µM
CC(O)(/C=C/c1ccccc1)P(=O)(O)c1ccccc1 (centres undefined) | – | > 100 µM | > 100 µM | > 100 µM | > 100 µM | > 100 µM | > 100 µM | > 100 µM | > 100 µM | > 100 µM | > 100 µM | > 100 µM | > 100 µM | – | > 100 µM | > 100 µM | > 100 µM | > 100 µM | > 100 µM

— PubChem BioAssay (NCI)
